Data reported in US20120202849A1, “PHARMACEUTICAL COMPOSITIONS FOR THE TREATMENT/PROPHYLAXIS OF NON-ALCOHOLIC FATTY LIVER DISEASE” (priority 2009, published 2012).

What was measured:
[1] = test system: fructose induced fatty liver; assay: Fructose induced fatty liver (NAFLD) in rats: biochemical parameters, body and liver weight, liver index after 14 days oral treatment; format: in vivo, Wistar rats; settings: monotherapy or high dose combination: HCQ 160 mg/kg, ATV 8 mg/kg, MET 500 mg/kg, Mean ± S.D.; for Alk. PO4: alkaline phosphatase; for Glucose: blood; for Liver Index: calculated from body weight and liver weight; for TC (Total Cholesterol) / TG (Triglyceride): serum
Text: The study was based on the experiment on rats with fatty liver induced by fructose feeding and given oral doses of different strengths of the corresponding drug samples for 14 days. It was concluded from the study that the protection given by the combination therapy is more as compared to monotherapy. […] In this experiment 66 Wistar rats weighing 150-200 g of either sex were divided randomly into 11 groups consisting of six rats each. […] Group 7 was NAFLD induced and treated with high dose combination of HCQ (160 mg/kg) and MET (500 mg/kg). Group 8 was NAFLD induced and treated with low dose combination of HCQ (80 mg/kg) and ATV (4 mg/kg). Group 9 was NAFLD induced and treated with high dose combination of HCQ (160 mg/kg) and ATV (8 mg/kg). Group 10 was NAFLD induced and treated with low dose combination of ATV (4 mg/kg), HCQ (80 mg/kg) and MET (250 mg/kg) whereas Group 11 was NAFLD induced and treated with high dose combination of ATV (8 mg/kg), HCQ (160 mg/kg) and MET (500 mg/kg). […] At the end of the therapy histopathological evaluations were performed.

[2] = test system: fructose induced fatty liver; assay: Histopathological examination of NAFLD induced liver tissue; format: in vivo, Wistar rats; settings: after 14 days; monotherapy or high dose combination: HCQ 160 mg/kg p.o., ATV 8 mg/kg p.o., MET 500 mg/kg
Protocol: In this experiment 66 Wistar rats weighing 150-200 g of either sex were divided randomly into 11 groups consisting of six rats each. Group 1 (normal control) consisted of normal rats that neither received fructose nor any drug, Group 2 served as NAFLD induced control (NAFLD was induced in rats by replacing water with 10% fructose solution for two weeks) which received vehicle orally, Group 3 was NAFLD induced and treated with HCQ (160 mg/kg), Group 4 was NAFLD induced and treated with ATV (8 mg/kg), Group 5 was NAFLD induced and treated with MET (500 mg/kg), Group 6 was NAFLD induced and treated with low dose combination of HCQ (80 mg/kg) and MET (250 mg/kg). Group 7 was NAFLD induced and treated with high dose combination of HCQ (160 mg/kg) and MET (500 mg/kg). Group 8 was NAFLD induced and treated with low dose combination of HCQ (80 mg/kg) and ATV (4 mg/kg). Group 9 was NAFLD induced and treated with high dose combination of HCQ (160 mg/kg) and ATV (8 mg/kg). Group 10 was NAFLD induced and treated with low dose combination of ATV (4 mg/kg), HCQ (80 mg/kg) and MET (250 mg/kg) whereas Group 11 was NAFLD induced and treated with high dose combination of ATV (8 mg/kg), HCQ (160 mg/kg) and MET (500 mg/kg). The study drugs suspended in vehicle [0.1% w/v suspension of Tween 80 and carboxymethylcellulose (CMC) in water] were administered for 14 days. After 14 days treatment, all the animals were sacrificed under chloroform anesthesia and blood was collected for determination of blood glucose levels, triglyceride levels, SGPT, SGOT, alkaline phosphatase and total cholesterol using autoanalyser (Microlab 2000) Liver index was also calculated based upon the body weight and liver weight. At the end of the therapy histopathological evaluations were performed.

[3] = patients on combined insulin and hydroxychloroquine therapy; average; cited from earlier work
[4] = patients treated with hydroxychloroquine; cited from earlier work

Row | SMILES | Alk. PO4 [1] [U/L] | Glucose [1] [mg/dL] | Liver Index [1] | SGOT [1] [U/L] | SGPT [1] [U/L] | TC (Total Cholesterol) [1] [mg/dL] | TG (Triglyceride) [1] [mg/dL] | Histopathological examination of liver [2] | Reduction of daily insulin dose [3] [%] | Liver Weight [1] [g] | Decrease in serum levels of cholesterol [4]
1 | CC(C)c1c(C(=O)Nc2ccccc2)c(-c2ccccc2)c(-c2ccc(F)cc2)n1CC[C@@H](O)C[C@@H](O)CC(=O)O [ATV, Atorvastatin] | 54.66 ± 2.58 | 159.33 ± 9.07 | 3.20 ± 0.24 | 114.00 ± 3.50 | 37.5 ± 2.42 | 137.66 ± 5.20 | 463.33 ± 12.12 | the degree of hepatic injury including steatosis and fatty infiltration were attenuated | – | – | –
2 | CCN(CCO)CCCC(C)Nc1ccnc2cc(Cl)ccc12 (stereo not shown) [HCQ, Hydroxychloroquine] | 63.16 ± 4.07 | 157.16 ± 7.93 | 4.53 ± 0.10 | 137.83 ± 10.59 | 44.83 ± 2.78 | 159.66 ± 10.23 | 556.66 ± 12.21 | did not show any recovery from fatty change | 30 | 7.64 ± 0.33 | approximately 10%
3 | CN(C)C(=N)N=C(N)N [MET, Metformin] | 61 ± 6.32 | 125.16 ± 6.24 | 4.50 ± 0.30 | 132.33 ± 8.98 | 43.66 ± 7.33 | 155.66 ± 10.85 | 516.33 ± 56.25 | Liver cells showed regeneration and repair in the form of nucleolation and absence of coarse fat vacuoles | – | 7.63 ± 0.30 | –
